Molecules are shown by their SMILES. Like-named read-outs stand apart in the source and are kept apart here.

The source of these data is patent publication US7534766B2, “Glucuronide metabolites and epimers thereof of tigecycline” (Wyeth, priority 2004, dated 2009).

For series [1] the following is noted: male, human, in vivo. The procedure:
(§1) An open-label, inpatient, multiple-dose tigecycline, single-dose [^14C]tigecycline metabolic disposition and mass balance study was performed in six healthy male volunteers. The clinical protocol called for twelve subjects. Of these twelve, six received the radioactive dose (subjects 1, 4, 5, 6, 7, and 8 with subject 8 later dropping out of the study.) Eligible subjects were selected based on inclusion/exclusion criteria, medical history, physical examination and additional procedures outlined in the study protocol. Each subject received a 100 mg loading dose on the morning of Day 1, followed by a 50 mg maintenance dose every 12 hours for an additional 5 doses. On the morning of study Day 4, six subjects received a single 50 mg dose of [^14C]tigecycline (50 μCi). Each tigecycline dose was administered via a 30-minute intravenous infusion.
(§2) Serum samples were collected for metabolite profiling prior to tigecycline dosing and 1, 4, 8, 24 and 48 hours following the [^14C]-labeled dose. For metabolite profiling, urine samples were collected at 0-4, 4-8, 8-24 and 24-48 hours and fecal samples were collected up to 48 hours following the [^14C]-labeled dose. Serum and urine samples, and fecal homogenates were shipped on dry ice to the Biotransformation Division of Drug Safety and Metabolism, Wyeth Research, Collegeville, Pa. The details of the sample collection and sample storage are described in the mass balance portion of the study. The 24-48 hour urine and fecal samples for subject #6 were incomplete since the subject withdrew from the study. While samples from this subject were used for metabolite profiling, the samples were not included in the mass balance calculations.
Urine samples for metabolite profiling were extracted, as discussed below, using a method previously developed and used for rat and dog urine samples. Urine samples that had been collected at various intervals up to 48 hours following the dose of [^14C]tigecycline were thawed on ice prior to extraction. Aliquots (1 mL) of the individual urine samples were transferred to clean tubes and 0.2 M EDTA, for a final concentration of 40 mM EDTA, was added. […] Samples were mixed, centrifuged and the supernatants analyzed for metabolites by HPLC radiochromatography with selected samples also analyzed by LC/MS.
HPLC analyses were performed using a Waters 2695 Alliance Separation Module (Waters Corp., Milford, Mass.), a Waters Model 2487 dual wavelength UV absorbance detector, set to monitor 350 nm, and was in-line with a Gilson 215 liquid handler (Gilson, Middleton, Wis.) equipped to collect fractions at 20 second intervals. Fractions were collected into 96-well deep well Luma plates and analyzed using TopCount NXT. The autosampler temperature was set to 4° C. […]

For series [2] the following is noted: male, human, in vivo. As for the experimental part:
as §1, §2
Individual fecal sample homogenates, prepared from each fecal sample collected up to 48 hours following the [^14C]-labeled tigecycline dose, that contained greater than 8000 dpm/g were analyzed for metabolite profiles. The preparation of the fecal sample homogenates is described in detail in the mass balance portion of the study. Briefly, fecal samples were homogenized with 3 to 4 volumes of ice-cold water by weight at ABC Laboratories (Columbia, Mo.) and shipped frozen to the Biotransformation Division of Drug Safety and Metabolism, Wyeth Research, Collegeville, Pa. For the extraction of radioactivity, fecal homogenates were thawed on ice and aliquots (approximately 1 g) transferred to 15 mL tubes. Three volumes of acetone were added and the samples mixed for 1 minute using a multi-tube vortex mixer. Samples were centrifuged for 15 minutes at 2500 rpm and 4° C. in a Sorvall Super T21 centrifuge. The supernatant was transferred to a fresh tube and the pellet re-suspended with 1 mL of water and 80 μL of 0.5 M EDTA, and re-extracted as described above. The pellet was re-extracted in this manner a total of three times and the supernatants pooled. The supernatant was evaporated to dryness under a stream of nitrogen using a Turbovap Model LV. The residue was re-suspended in 500 μL of water and centrifuged for 10 minutes at 14,000 rpm and room temperature using a Model 5415C Eppendorf centrifuge. The supernatant was transferred to an HPLC vial, assayed for radioactivity and for metabolite profiles using HPLC with radioactivity detection. Selected samples were also analyzed by LC/MS.
HPLC analyses were performed using a Waters 2695 Alliance Separation Module (Waters Corp., Milford, Mass.), a Waters Model 2487 dual wavelength UV absorbance detector, set to monitor 350 nm, and was in-line with a Gilson 215 liquid handler (Gilson, Middleton, Wis.) equipped to collect fractions at 20 second intervals.
The source holds these as a separate data set.

Series [3] is described as follows: Tigecycline metabolites identified in CD-1 mouse serum and urine and rabbit serum samples (LC/MS). The series is classed as in vivo. The procedure:
The column temperature was 25° C. The flow rate was 0.2 mL/min. […] Gradient 1 was used for metabolite identification (qualitative analysis).
LC/MS analysis was conducted on extracts of serum and from CD-1 mice and rabbits, and on urine from CD-1 mice. The mass spectral data for tigecycline and its metabolites are discussed below.

For `CN(C)c1cc(NC(=O)CNC(C)(C)C)c(O)c2c1C[C@H]1C[C@H]3C(N(C)C)C(O[C@@H]4O[C@H](C(=O)O)[C@@H](O)[C@H](O)[C@H]4O)=C(C(N)=O)C(=O)[C@@]3(O)C(O)=C1C2=O` (stereo in doubt) [Metabolite M7, tigecycline glucuronide], in series [1], the “percent of the urinary radioactivity” value is on record as “approximately 20%”. Further, in series [2], the “percent of the fecal radioactivity” value is 10-26%. The “Estimated Concentrations in fecal homogenate” value (“Estimated Concentrations” for short) in series [2] (24.2 h) is 0.51 mg-Tigecycline Equivalents/Collection; in series [2] (24.6 h), 0.40 mg-Tigecycline Equivalents/Collection; in series [2] (25.2 h), 1.1 mg-Tigecycline Equivalents/Collection; in series [2] (29.8 h), 2.6 mg-Tigecycline Equivalents/Collection; in series [2] (30 h), 1.2 mg-Tigecycline Equivalents/Collection; in series [2] (32 h), 0.49 mg-Tigecycline Equivalents/Collection. Further, the figures for the “Estimated Concentrations” value in series [2] (34.2 h) and in series [2] (41.8 h) were 1.1 mg-Tigecycline Equivalents/Collection and 1.8 mg-Tigecycline Equivalents/Collection, respectively. Also, the “Relative Distribution (%) of radioactivity in extracted fecal homogenate” value (“Relative Distribution (%)” below) in series [2] (24.2 h) came out at 23.5%; in series [2] (24.6 h), 9.8%; in series [2] (25.2 h), 10.4%; in series [2] (29.8 h), 21.6%; in series [2] (30 h) it was 13.3%; in series [2] (32 h) it was 10.4%. For the same molecule, the “Relative Distribution (%)” value in series [2] (34.2 h) was 26.3%; in series [2] (41.8 h), 21.3%. In addition, in series [3] (in vivo, iv), the “Species and matrix in which identified” value is “R-S, M-S, M-U”.
In the case of `CC(C)(C)NCC(=O)O` [Metabolite M3a, t-butylaminoacetic acid], the “percent of the radioactivity in urine” value in series [1] is 15-37%. Also, in series [2], the “percent of the fecal radioactivity” value is 4-14%. The “Estimated Concentrations” value in series [2] (24.2 h) is on record as “(0.30) mg-Tigecycline Equivalents/Collection”; in series [2] (24.6 h) it was “(0.25) mg-Tigecycline Equivalents/Collection”; in series [2] (25.2 h) it was “(0.81) mg-Tigecycline Equivalents/Collection”; in series [2] (29.8 h), “(0.49) mg-Tigecycline Equivalents/Collection”; in series [2] (30 h) it was “(0.55) mg-Tigecycline Equivalents/Collection”; in series [2] (32 h), “(0.20) mg-Tigecycline Equivalents/Collection”. Moreover, the “Estimated Concentrations” value in series [2] (34.2 h) is listed as “(0.17) mg-Tigecycline Equivalents/Collection”; in series [2] (41.8 h), “(0.56) mg-Tigecycline Equivalents/Collection”. In addition, the “Relative Distribution (%)” value in series [2] (24.2 h) amounted to 13.9%; in series [2] (24.6 h), 6.2%; in series [2] (25.2 h), 7.5%; in series [2] (29.8 h) it was 4.1%; in series [2] (30 h), 5.9%; in series [2] (32 h), 4.2%. The “Relative Distribution (%)” value came to 3.9% in series [2] (34.2 h) and 6.7% in series [2] (41.8 h).
As for `CN(C)c1cc(NC(=O)CNC(C)(C)C)c(O)c2c1C[C@H]1C[C@H]3[C@@H](N(C)C)C(O[C@@H]4O[C@H](C(=O)O)[C@@H](O)[C@H](O)[C@H]4O)=C(C(N)=O)C(=O)[C@@]3(O)C(O)=C1C2=O` [Metabolite M6, epimer of tigecycline glucuronide], in series [1], the “percent of the radioactivity in urine” value was “less than 1%”. Further, the “percent of the fecal radioactivity” value in series [2] is “up to 9%”. Moreover, the “Estimated Concentrations” value in series [2] (24.2 h) is reported as 0.13 mg-Tigecycline Equivalents/Collection; in series [2] (25.2 h) it was 0.44 mg-Tigecycline Equivalents/Collection; in series [2] (29.8 h), 0.82 mg-Tigecycline Equivalents/Collection; in series [2] (30 h) it was 0.52 mg-Tigecycline Equivalents/Collection; in series [2] (32 h), 0.14 mg-Tigecycline Equivalents/Collection; in series [2] (34.2 h), 0.32 mg-Tigecycline Equivalents/Collection. For the same molecule, in series [2] (41.8 h), the “Estimated Concentrations” value is on record as 0.75 mg-Tigecycline Equivalents/Collection. Besides, the “Relative Distribution (%)” value in series [2] (24.2 h) is on record as 5.8%; in series [2] (25.2 h), 4.1%; in series [2] (29.8 h) it was 6.8%; in series [2] (30 h), 5.6%; in series [2] (32 h), 3.0%; in series [2] (34.2 h) it was 7.5%. Besides, the “Relative Distribution (%)” value in series [2] (41.8 h) is listed as 8.9%. In addition, in series [3] (in vivo, iv), the “Species and matrix in which identified” value was “R-S, M-S, M-U”.
Take `CN(C)c1cc(NC(=O)CNC(C)(C)C)c(O)c2c1C[C@H]1C[C@H]3[C@H](N(C)C)C(O)=C(C(N)=O)C(=O)[C@@]3(O)C(O)=C1C2=O` [Tigecycline]: in series [2], the “percent of fecal radioactivity after correcting for the epimer formed during the extraction process” value was 39-66%. Moreover, the “percent of the fecal radioactivity” value in series [2] is on record as 28-51%. Moreover, the “Estimated Concentrations” value in series [2] (24.2 h) is listed as 0.97 mg-Tigecycline Equivalents/Collection; in series [2] (24.6 h), 2.0 mg-Tigecycline Equivalents/Collection; in series [2] (25.2 h) it was 4.3 mg-Tigecycline Equivalents/Collection; in series [2] (29.8 h), 4.7 mg-Tigecycline Equivalents/Collection; in series [2] (30 h), 4.5 mg-Tigecycline Equivalents/Collection; in series [2] (32 h), 2.4 mg-Tigecycline Equivalents/Collection. Further, the “Estimated Concentrations” value is given as 1.4 mg-Tigecycline Equivalents/Collection in series [2] (34.2 h) and 2.4 mg-Tigecycline Equivalents/Collection in series [2] (41.8 h). The “Relative Distribution (%)” value was determined as 44.9% in series [2] (24.2 h); 47.7% in series [2] (24.6 h); 39.9% in series [2] (25.2 h); 39.1% in series [2] (29.8 h); 48.3% in series [2] (30 h); 50.7% in series [2] (32 h). The “Relative Distribution (%)” value in series [2] (34.2 h) is on record as 32.8%; in series [2] (41.8 h), 28.1%. Moreover, the “Species and matrix in which identified” value in series [3] (single IV tigecycline dose, LC/MS) is “R-S, M-S, M-U”.
